Experimental data reported in US20100029604A1, “ANTIBACTERIAL COMBINATION AND ITS USE” (priority 2007, published 2010).
Converted amounts (≈) assume the structure as drawn. Like-named read-outs stand apart in the source and are kept apart here.

What was measured:
E. coli TEM-2 = format: cell-based; conditions: TEM-2, class A, inhibitor constant 4 μg/mL
K. pneumoniae SHV-18 = experiment: Synergy MIC, inhibitor at 4 μg/mL (Example 4); format: cell-based; conditions: SHV-18, class A, inhibitor constant 4 μg/mL
E. coli SHV-3 [1] = experiment: Synergy MIC, inhibitor at 4 μg/mL (Example 4); format: cell-based; conditions: SHV-3, class A, inhibitor constant 4 μg/mL
E. cloacae AmpC = experiment: Synergy MIC, inhibitor at 4 μg/mL (Example 4); format: cell-based, Enterobacter Cloacae; conditions: class C, inhibitor constant 4 μg/mL
Method: (§1) The in vitro activities of the antibiotics were determined by the broth microdilution method and agar dilution technique as recommended by CLSI guidelines. The MIC experiments were performed in duplicate in 96-well microtiter plates using MHB. Serial twofold dilutions of each antibiotic either alone or in combination with a constant amount (4 μg/mL) of a β-lactamase inhibitor were prepared in MHBII broth. A sterile pipette tip was used to mix the contents of each well (one tip was used going from the low to the high concentration in the same column). The bacterial suspension with final inoculum 10^5 CFU/mL was transferred to the test medium containing the antibacterial substances by a multipoint inoculator (Dynatech, Chantilly, Va., USA). The plates were then incubated at 35° C. for 24 h.
(§2) Following procedures identical to those described in Example 3, representative compound of Formula (I) was tested for its ability to enhance antibiotic efficacy against Class C β-lactamase positive bacterial strains that are highly resistant to β-lactam antibiotics. Class C enzymes included AmpC β-lactamases of Enterobacter Cloacae and Citrobacter freundii.

C. freundii AmpC = experiment: Synergy MIC, inhibitor at 4 μg/mL (Example 4); format: cell-based, Citrobacter freundii; conditions: class C, inhibitor constant 4 μg/mL
Method: as §1, §2

E. coli TEM-1 [2] = format: cell-based; conditions: TEM-1, class A, inhibitor constant 4 μg/mL
E. coli SHV-5 = experiment: Synergy MIC, inhibitor at 4 μg/mL (Example 4); format: cell-based; conditions: SHV-5, class A, inhibitor constant 4 μg/mL
[3] = system: 55 laboratory strains producing characterized β-lactamases; experiment: MIC, whole panel of Example 5 (Tables 5-7); format: cell-based; conditions: LK-157 as single agent against the tested strains
Method: The MIC experiments were performed in duplicate in 96-well microtiter plates using CAMHB. Serial twofold dilutions of each antibiotic either alone or in combination with constant concentration ratio of a β-lactamase inhibitor (2:1) were prepared in CAMHB. The bacterial suspension with final inoculum 10^5 CFU/mL was transferred to the test medium containing the antibacterial substances. In each well of a 96-well microtiter plate was combined 50 μL of bacterial inoculum, 50 μL of antibiotic dilutions (or media for determination of the MIC of the antibiotic in the absence of test compound). Each plate included 4 wells with no bacterial inoculum (negative control) and 4 wells with no test compound and no antibiotic (positive control). The plates were incubated at 35° C. for 24 h. Purity check and colony counts on each inoculum suspension was performed to ensure that the final inoculum concentration routinely obtained closely approximates 5×10^5 CFU/mL. In addition the assay is routinely monitored by testing standard antibiotics and ensuring that MIC values are within the recommended ranges for the respective strains.
This test permits comparisons to be made between bacterial growth in the presence of antibiotic alone and bacterial growth in the presence of both an antibiotic and a novel (test) compound.

M. catarrhalis BRO-1 = experiment: Synergy MIC, inhibitor at 4 μg/mL (Example 3); format: cell-based, Moraxella catarrhalis; conditions: BRO-1 β-lactamases of M. catarrhalis
Method: (§3) Stock solutions of the test compounds and control antibiotics were prepared in distilled water according to the NCCLS guidelines [Methods for dilution antimicrobial tests for bacteria that grow aerobically. NCCLS document M7-A5; 2000; vol. 19. National Committee for Clinical Laboratory Standards, Villanova, Pa.]. All drug weights were corrected for salt forms and refer to the pure drug substance.
(§4) All tested strains and Clinical isolates were either purchased from the American Type Culture Collection (ATCC), or from the in-house company culture collection.
(§5) Stock cultures were prepared from broth cultures grown at 35° C. for 18-22 h without agitation and subsequent addition of 5% DMSO (v/v, final concentration) as cryoprotectant and stored frozen in liquid nitrogen. Mueller-Hinton II broth (MHBII) (BBL Cockeysville, Md.) was used for the testing procedure.
as §1
(§6) Representative compound of Formula (I) was evaluated against the serine-based Class A β-lactamases including TEM-type, SHV-type extended spectrum β-lactamases (ESBL) and various non-ESBL enzymes of enterobacteriaceae as well as BRO-type enzymes of Moraxella catarrhalis and penicillinases of Staphylococcus aureus.

AmpC = AmpC (Enterobacter cloacae, UniProt P05364); format: biochemical, Enterobacter Cloaca; conditions: Class C β-lactamase; 10 min pre-incubation at 37° C., nitrocefin
Method: (§7) A standard test for the production of βlactamase involves use of the chromogenic cephalosporin, nitrocefin.
(§8) Homogeneously purified Class A β-lactamases TEM-1 and SHV-1 from E. coli and Class C enzyme AmpC from Enterobacter Cloaca were employed in the assay.
(§9) Compounds were prepared as 50 mM stocks in DMSO and diluted with buffer P1 (50 mM phosphate, pH 7) to a final concentration of 10% DMSO. All further dilutions were done using P2 (P1 with 10% DMSO). Enzyme and compound dilutions were pre-incubated for 10 min at 37° C. and the reaction started with the addition of pre-warmed (37° C.) nitrocefin (reporter substrate) at a final concentration of […]. The change in absorption at 490 nm was followed at 37° C. for 10 min at 30 sec intervals in a SPECTRAMAX 384 PLUS microplate reader (Molecular Devices, Sunnyvale, Calif.) using 96-well plates. The initial rate was determined and IC50 values were calculated using non-linear regression and sigmoidal dose response analysis with the PRISM 4.0 software (Graphpad Software Inc., San Diego, Calif.). IC50 data is expressed as μM and was calculated from at least two independent experiments.

S. aureus PC = experiment: Synergy MIC, inhibitor at 4 μg/mL (Example 3); format: cell-based, Staphylococcus aureus; conditions: penicillinases (PC-type) of S. aureus (MSSA)
Method: as §3, §4, §5, §1, §6

TEM-1 = TEM-1 (Escherichia coli, UniProt P62593); experiment: IC50 determination, nitrocefin hydrolysis; format: biochemical, E. coli; conditions: Class A β-lactamase, 10 min pre-incubation at 37° C.
Method: as §7, §8, §9

SHV-1 = SHV-1 (Escherichia coli, UniProt P0AD63); experiment: IC50 determination, nitrocefin hydrolysis; format: biochemical, E. coli; conditions: Class A β-lactamase, 10 min pre-incubation at 37° C.
Method: as §7, §8, §9

[4] = system: Class C β-lactamase (AmpC) producing strains; experiment: Synergy MIC, Class C strains of Example 4; format: cell-based; conditions: all combinations used
Method: as §1, §2

E. coli TEM-3 = format: cell-based; conditions: β-lactamase TEM-3 (Table 3 r16), inhibitor constant 4 μg/mL
Method: as §3, §4, §5, §1, §6

E. coli TEM-1 [5] = format: cell-based; conditions: β-lactamase TEM-1, first listed (Table 3 r14), inhibitor constant 4 μg/mL
Method: as §3, §4, §5, §1, §6

M. catarrhalis BRO-2 = experiment: Synergy MIC, inhibitor at 4 μg/mL (Example 3); format: cell-based, Moraxella catarrhalis; conditions: β-lactamase BRO-2 (Table 3 r18), inhibitor constant 4 μg/mL
Method: as §3, §4, §5, §1, §6

E. coli ESBL = experiment: Synergy MIC, inhibitor at 4 μg/mL (Example 3); format: cell-based; conditions: first listed (Table 3 r21), inhibitor constant 4 μg/mL
Method: as §3, §4, §5, §1, §6

C. freundii SHV-5 [6] = experiment: Synergy MIC, inhibitor at 4 μg/mL (Example 3); format: cell-based; conditions: β-lactamase SHV-5 (Table 3 r10), inhibitor constant 4 μg/mL
Method: as §3, §4, §5, §1, §6

E. cloacae SHV-12 = experiment: Synergy MIC, inhibitor at 4 μg/mL (Example 3); format: cell-based; conditions: β-lactamase SHV-12 (Table 3 r11), inhibitor constant 4 μg/mL
Method: as §3, §4, §5, §1, §6

K. oxytoca ESBL = experiment: Synergy MIC, inhibitor at 4 μg/mL (Example 3); format: cell-based; conditions: ESBL (Table 3 r26), inhibitor constant 4 μg/mL
Method: as §3, §4, §5, §1, §6

E. coli SHV-3 [7] = experiment: Synergy MIC, inhibitor at 4 μg/mL (Example 3); format: cell-based; conditions: β-lactamase SHV-3 (Table 3 r9), inhibitor constant 4 μg/mL
Method: as §3, §4, §5, §1, §6

[8] = system: Klebsiella pneumoniae ATCC 700603; experiment: MIC broth microdilution (Example 2); conditions: Klebsiella pneumoniae ATCC 700603 producing SHV-18
[9] = system: Klebsiella oxytoca ATCC 51983; experiment: MIC broth microdilution (Example 2); conditions: ATCC51983
C. freundii SHV-5 [10] = experiment: Synergy MIC, inhibitor at 4 μg/mL (Example 4); format: cell-based; conditions: SHV-5, class A, inhibitor constant 4 μg/mL

Chain of AmpC (P05364 21-381): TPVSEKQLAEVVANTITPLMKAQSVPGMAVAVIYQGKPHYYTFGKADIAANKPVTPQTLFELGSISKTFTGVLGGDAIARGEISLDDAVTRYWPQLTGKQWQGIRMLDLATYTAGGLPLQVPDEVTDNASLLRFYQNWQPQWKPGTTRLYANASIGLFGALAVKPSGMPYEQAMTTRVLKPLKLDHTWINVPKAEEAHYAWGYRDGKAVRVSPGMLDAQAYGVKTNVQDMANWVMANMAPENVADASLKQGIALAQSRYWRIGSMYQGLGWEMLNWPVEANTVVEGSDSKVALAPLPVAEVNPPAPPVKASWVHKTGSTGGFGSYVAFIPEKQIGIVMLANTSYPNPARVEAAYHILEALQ
Chain of TEM-1 (P62593 24-286 limits assumed): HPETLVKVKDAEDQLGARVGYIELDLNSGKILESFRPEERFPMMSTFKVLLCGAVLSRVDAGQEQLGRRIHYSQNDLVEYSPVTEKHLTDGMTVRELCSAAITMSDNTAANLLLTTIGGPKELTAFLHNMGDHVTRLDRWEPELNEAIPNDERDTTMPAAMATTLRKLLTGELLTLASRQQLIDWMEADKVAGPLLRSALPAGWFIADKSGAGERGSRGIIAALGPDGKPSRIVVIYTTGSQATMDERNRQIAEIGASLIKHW
Chain of SHV-1 (P0AD63 22-286): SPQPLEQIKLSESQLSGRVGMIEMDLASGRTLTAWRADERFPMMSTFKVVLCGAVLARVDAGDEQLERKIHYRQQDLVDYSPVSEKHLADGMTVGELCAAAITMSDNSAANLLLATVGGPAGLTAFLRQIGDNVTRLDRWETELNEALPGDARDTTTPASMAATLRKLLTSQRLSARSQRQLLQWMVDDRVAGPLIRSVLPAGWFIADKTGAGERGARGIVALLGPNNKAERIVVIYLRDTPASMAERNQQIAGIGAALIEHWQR

With `C[C@H]1[C@H](NC(=O)/C(=N\OC(C)(C)C(=O)O)c2csc(N)n2)C(=O)N1S(=O)(=O)O` [Aztreonam, aztreonam] the MIC (E. coli TEM-2) was 0.1 µg/mL (≈ 0.23 µM), the MIC (K. pneumoniae SHV-18) was > 25.6 µg/mL and the MIC (E. coli SHV-3 [1]) was 0.4 µg/mL. For the same molecule, the MIC (E. cloacae AmpC; first listed) was 25.6 µg/mL, the MIC (E. cloacae AmpC; second listed) was > 25.6 µg/mL and the MIC (E. cloacae AmpC; third listed) was 12.8 µg/mL. For the same molecule, the MIC (C. freundii AmpC) was > 25.6 µg/mL, the MIC (E. coli TEM-1 [2]) was 12.8 µg/mL (≈ 29.4 µM) and the MIC (E. coli SHV-5) was > 25.6 µg/mL.
`CO/N=C(\C(=O)N[C@@H]1C(=O)N2C(C(=O)[O-])=C(C[n+]3cccc4c3CCC4)CS[C@H]12)c1csc(N)n1` [Cefpirome, cefpirome] was tested, and the MIC (E. coli TEM-2) was “≦0.025”, the MIC (K. pneumoniae SHV-18) was 0.8 µg/mL and the MIC (E. coli SHV-3 [1]) was 0.8 µg/mL. It also gave an MIC (E. cloacae AmpC; first listed) of 6.4 µg/mL, an MIC (E. cloacae AmpC; second listed) of 3.2 µg/mL and an MIC (E. cloacae AmpC; third listed) of 3.2 µg/mL. The MIC (C. freundii AmpC) was 1.6 µg/mL, the MIC (E. coli TEM-1 [2]) was 25.6 µg/mL (≈ 49.7 µM) and the MIC (E. coli SHV-5) was > 25.6 µg/mL.
With `C/C=C1/C(=O)N2C(C(=O)O)=C3[C@@H](OC)CCC[C@@H]3[C@H]12` [Compound 1a, (4S,8S,9R)-4-methoxy-10-((E)-ethylidene)-11-oxo-1-azatricyclo[7.2.0.0^3,8]undec-2-ene-2-carboxylic acid] the “antibiotic activity per se” value [3] was “did not display antibiotic activity per se”, the “activity compared with other β-lactamase inhibitors” value (M. catarrhalis BRO-1) was “more active than the other tested β-lactamase inhibitors” and the IC50 (AmpC) was 0.062 µM. The “activity compared with other β-lactamase inhibitors” value (S. aureus PC) was “more active than the other tested β-lactamase inhibitors”, the IC50 (TEM-1) was 0.055 µM and the IC50 (SHV-1) was 0.151 µM. For the same molecule, the “activity compared with tazobactam” value [4] was “superior to tazobactam”.
In the case of `CCN1CCN(C(=O)N[C@@H](C(=O)N[C@@H]2C(=O)N3[C@@H]2SC(C)(C)[C@@H]3C(=O)O)c2ccccc2)C(=O)C1=O` [PIP, piperacillin], the MIC (E. coli TEM-3) is reported as > 25.6 µg/mL, the MIC (E. coli TEM-1 [5]) is reported as > 25.6 µg/mL and the MIC (M. catarrhalis BRO-2) is reported as 1.6 µg/mL. The MIC (E. coli ESBL) was 0.8 µg/mL, the MIC (C. freundii SHV-5 [6]) was > 25.6 µg/mL and the MIC (E. cloacae SHV-12) was > 25.6 µg/mL. For the same molecule, the MIC (K. oxytoca ESBL) was 3.2 µg/mL and the MIC (E. coli SHV-3 [7]) was > 25.6 µg/mL.
In the case of `CO/N=C(\C(=O)N[C@@H]1C(=O)N2C(C(=O)O)=C(CSc3nc(=O)c(=O)[nH]n3C)CS[C@H]12)c1csc(N)n1` [ceftriaxone], the MIC (E. coli TEM-2) is reported as “≦0.025”, the “susceptibility of the strain to the antibiotic” value [8] is reported as “susceptible” and the MIC (K. pneumoniae SHV-18) is reported as 6.4 µg/mL. The MIC [9] was 2 to 8 µg/mL (≈ 3.61 to 14.4 µM), the MIC (E. coli SHV-3 [1]) was 3.2 µg/mL and the MIC (E. cloacae AmpC; first listed) was > 25.6 µg/mL. The MIC (E. cloacae AmpC; second listed) was > 25.6 µg/mL, the MIC (E. cloacae AmpC; third listed) was > 25.6 µg/mL and the MIC (C. freundii AmpC) was > 25.6 µg/mL. For the same molecule, the MIC (E. coli TEM-1 [2]) was > 25.6 µg/mL, the MIC (C. freundii SHV-5 [10]) was 25.6 µg/mL and the MIC (E. coli SHV-5) was > 25.6 µg/mL.
